Measured values published in PMC12057336 (Antimicrobial Agents and Chemotherapy, 2025).

How the values were obtained:
human OATP2B1 = molecular target: T1, human OATP2B1 (Homo sapiens, UniProt O94956); experiment: Uptake in OATP2B1-transfected HEK293 cells; details: 5 µM; 10 min; 37°C; vs mock cells
T1 sequence (O94956 1-709): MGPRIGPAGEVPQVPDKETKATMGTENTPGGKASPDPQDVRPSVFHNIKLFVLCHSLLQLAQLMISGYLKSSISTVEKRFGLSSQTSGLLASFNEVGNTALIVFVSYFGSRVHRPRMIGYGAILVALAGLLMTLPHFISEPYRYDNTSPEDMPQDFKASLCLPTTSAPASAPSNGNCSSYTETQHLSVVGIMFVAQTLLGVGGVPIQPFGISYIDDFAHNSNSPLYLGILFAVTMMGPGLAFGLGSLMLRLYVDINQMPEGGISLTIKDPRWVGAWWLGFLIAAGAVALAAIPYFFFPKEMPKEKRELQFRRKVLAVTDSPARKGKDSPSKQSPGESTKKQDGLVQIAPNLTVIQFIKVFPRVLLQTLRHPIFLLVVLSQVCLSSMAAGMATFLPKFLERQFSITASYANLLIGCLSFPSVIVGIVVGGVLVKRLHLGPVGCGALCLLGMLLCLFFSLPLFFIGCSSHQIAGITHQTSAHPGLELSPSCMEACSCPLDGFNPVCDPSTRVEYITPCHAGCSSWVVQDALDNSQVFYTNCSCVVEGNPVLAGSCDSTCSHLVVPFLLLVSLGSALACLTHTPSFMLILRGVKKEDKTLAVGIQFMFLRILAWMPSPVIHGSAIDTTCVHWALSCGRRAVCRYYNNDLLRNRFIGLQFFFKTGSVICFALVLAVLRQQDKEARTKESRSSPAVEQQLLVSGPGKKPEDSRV
Procedure: (§1) OATP1B1-, OATP1B3-, OATP2B1-, NTCP-, OAT1-, and OAT3-transfected HEK293 cells were cultured in DMEM supplemented with 10% FBS, 100 U/mL penicillin-streptomycin at 37°C with 95% relative humidity atmosphere containing 5% CO2. All cells were seeded in 24-well plates at a density of 4 × 10^5 cells/well and cultured for 1–2 days until they reached 80%–90% confluence. Prior to the initiation of uptake studies, the cells were washed twice with HBSS buffer at 37°C. Membrane vesicles were stored at −80°C and thawed at 37°C prior to the initiation of the studies.
(§2) All uptake tests were performed in triplicates. The activities of transporter-transfected HEK293 cells were evaluated using relevant positive substrates and inhibitors. E17G (5 µM, OATP1B1 and OATP1B3), ES (2 µM, OATP2B1), ES (5 µM, OAT3), TCA (10 µM, NTCP), and PAH (20 µM, OAT1) were used as substrates of the transporters. The inhibitors for each transporter were rifampicin (200 µM, OATP1B1 and OATP1B3), erlotinib (10 µM, OATP2B1), CsA (20 µM, NTCP), and probenecid (200 µM, OAT1 and OAT3).
(§3) The cells were washed three times with ice-cold HBSS buffer. […] The total protein concentration was measured using a BCA Protein Assay Kit. The uptake rates of HEK293-OATP1B1, HEK293-OATP1B3, HEK293-OATP2B1, HEK293-NTCP, HEK293-OAT1, HEK293-OAT3, and mock cells were calculated. […]

human NTCP = molecular target: T2, human NTCP (Homo sapiens, UniProt Q14973); experiment: Uptake in NTCP-transfected HEK293 cells; details: 5 µM; 10 min; 37°C; vs mock cells
T2 sequence (Q14973 1-349): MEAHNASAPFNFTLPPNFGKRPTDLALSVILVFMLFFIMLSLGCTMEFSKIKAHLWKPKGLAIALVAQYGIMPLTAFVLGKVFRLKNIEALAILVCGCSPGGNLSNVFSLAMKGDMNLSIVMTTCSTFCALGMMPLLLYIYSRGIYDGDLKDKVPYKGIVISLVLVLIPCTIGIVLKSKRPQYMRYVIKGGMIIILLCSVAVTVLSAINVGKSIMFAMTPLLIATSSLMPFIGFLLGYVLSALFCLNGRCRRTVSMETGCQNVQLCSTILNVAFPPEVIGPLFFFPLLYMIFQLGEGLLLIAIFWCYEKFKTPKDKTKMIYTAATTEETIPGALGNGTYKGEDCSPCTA
Procedure: as §1, §2, §3

human OAT3 = molecular target: T3, human OAT3 (Homo sapiens, UniProt Q8TCC7); experiment: Uptake in OAT3-transfected HEK293 cells; details: 5 µM; 10 min; 37°C; vs mock cells
T3 sequence (Q8TCC7 1-542): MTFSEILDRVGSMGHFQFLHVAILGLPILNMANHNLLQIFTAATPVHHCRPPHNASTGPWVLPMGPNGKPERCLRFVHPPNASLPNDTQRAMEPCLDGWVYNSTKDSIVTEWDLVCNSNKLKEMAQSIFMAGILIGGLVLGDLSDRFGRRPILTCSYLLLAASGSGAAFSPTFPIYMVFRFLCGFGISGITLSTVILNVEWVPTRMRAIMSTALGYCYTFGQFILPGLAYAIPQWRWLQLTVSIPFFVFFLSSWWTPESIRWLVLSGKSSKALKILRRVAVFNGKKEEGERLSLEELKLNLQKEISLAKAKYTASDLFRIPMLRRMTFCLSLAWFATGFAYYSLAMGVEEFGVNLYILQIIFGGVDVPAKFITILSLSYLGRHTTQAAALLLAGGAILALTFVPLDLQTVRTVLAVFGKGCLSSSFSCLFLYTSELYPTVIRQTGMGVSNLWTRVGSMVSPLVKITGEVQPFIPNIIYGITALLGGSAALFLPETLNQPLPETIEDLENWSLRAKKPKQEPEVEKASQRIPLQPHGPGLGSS
Procedure: as §1, §2, §3

[1] = rats; cited from earlier work
MATE1 = details: cited from earlier work

For `CC(=O)NC[C@H]1CN(c2ccc(N3CCOCC3)c(F)c2)C(=O)O1` [Linezolid], the “substrate for OATP2B1” value (human OATP2B1) was “not a substrate”, the “substrate for NTCP” value (human NTCP) was “not a substrate” and the “substrate for OAT3” value (human OAT3) was “not a substrate”. For the same molecule, the “mean recovery of linezolid radioactivity in excreta” value [1] was “over 95%” and the “substrate for MATE1” value (MATE1) was “not a substrate”.
